Measured values as given in PubChem BioAssay (NCI).
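96-well plates; 48 h exposure; 5 concentrations. Endpoints by linear interpolation between flanking doses. Not reached: highest tested concentration assigned. Abbreviation: GI50, concentration required for 50% inhibition of growth. At the TGI there is no net growth.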

What was measured:
Assay in all cases: NCI tumour cell line growth inhibition, 48 h
786-0 renal = tested on: 786-0 renal
EKVX NSCLC = tested on: EKVX NSCLC
KM12 colon = tested on: KM12 colon
MALME-3M melanoma = tested on: MALME-3M melanoma
OVCAR-3 ovarian = tested on: OVCAR-3 ovarian
SK-OV-3 ovarian = tested on: SK-OV-3 ovarian
SNB-75 CNS = tested on: SNB-75 CNS
SW-620 colon = tested on: SW-620 colon
TK-10 renal = tested on: TK-10 renal
PC-3 prostate = tested on: PC-3 prostate

| SMILES | TGI (786-0 renal) | TGI (EKVX NSCLC) | TGI (KM12 colon) | TGI (MALME-3M melanoma) [µM] | TGI (OVCAR-3 ovarian) | TGI (SK-OV-3 ovarian) | TGI (SNB-75 CNS) | TGI (SW-620 colon) | TGI (TK-10 renal) | GI50 (786-0 renal) | GI50 (EKVX NSCLC) | GI50 (KM12 colon) | GI50 (OVCAR-3 ovarian) | GI50 (PC-3 prostate) | TGI (PC-3 prostate) | GI50 (SK-OV-3 ovarian) | GI50 (SNB-75 CNS) | GI50 (SW-620 colon) | GI50 (TK-10 renal) | GI50 (MALME-3M melanoma) [µM] |
| --- | --- | --- | --- | --- | --- | --- | --- | --- | --- | --- | --- | --- | --- | --- | --- | --- | --- | --- | --- | --- |
| O=c1[nH]c2cc(Cl)ccc2nc1/C(=N\O)C(O)c1cccc([N+](=O)[O-])c1 (stereo not given) | > 100 µM | > 100 µM | > 100 µM | > 100 | > 100 µM | > 100 µM | > 100 µM | > 100 µM | > 100 µM | – | – | – | – | – | – | – | – | – | – | – |
| CN1C(=Nc2ccccc2)SC1=Nc1ccccc1 | > 100 µM | > 100 µM | > 100 µM | 94.3 | > 100 µM | > 100 µM | 40.3 µM | > 100 µM | > 100 µM | – | – | – | – | – | – | – | – | – | – | – |
| c1ccc2c(c1)cc(C1NCCc3[nH]cnc31)c1ccccc12 (stereo not given) | > 60.8 µM | > 100 µM | > 100 µM | > 100 | > 100 µM | > 100 µM | > 100 µM | > 60.5 µM | > 100 µM | – | – | – | – | – | – | – | – | – | – | – |
| OC(c1ccccc1)(c1ccccc1)c1ccncc1 | > 100 µM | > 100 µM | > 100 µM | > 100 | > 100 µM | > 100 µM | > 100 µM | > 100 µM | > 100 µM | – | – | – | – | – | – | – | – | – | – | – |
| COc1ccc2n[se]nc2c1 | > 100 µM | > 100 µM | > 100 µM | > 100 | – | > 100 µM | > 100 µM | > 100 µM | > 100 µM | – | – | – | – | – | – | – | – | – | – | – |
| CCN(CC)c1c(C(=O)/C=C/c2ccc(OC)cc2)c(-c2ccccc2)nn(C)c1=O | 41.2 µM | 69.6 µM | 37.1 µM | 35.1 | – | > 100 µM | – | 98.4 µM | 99.9 µM | – | – | – | – | – | – | – | – | – | – | – |
| Cc1cc(=O)n(-c2ccccc2C)c(C)n1 | > 100 µM | > 100 µM | > 100 µM | > 100 | > 100 µM | > 100 µM | > 100 µM | > 100 µM | > 100 µM | – | – | – | – | – | – | – | – | – | – | – |
| COc1ccc(/C(COc2ccc3c(=O)cc(-c4ccccc4)oc3c2)=N\O)cc1 | > 50 µM | > 18 µM | > 42.6 µM | – | 38.7 µM | 48.4 µM | > 45.9 µM | > 50 µM | 28.1 µM | 17.2 µM | 2.05 µM | 12.5 µM | 10.3 µM | 12.7 µM | > 36.1 µM | 16.1 µM | > 31.8 µM | > 35.6 µM | 10.7 µM | – |
| Clc1ccc(C2SCc3nc4ccccc4n32)c(Cl)c1 (stereo not given) | 31.9 µM | 24.9 µM | 29.4 µM | 32.5 | 27.3 µM | 42.1 µM | 34.8 µM | 22 µM | 28.4 µM | – | – | – | – | – | – | – | – | – | – | – |
| CCc1cc(C(=O)OC)cn1C(=N)c1ccc(Cl)cc1 | > 100 µM | > 100 µM | > 100 µM | > 100 | > 100 µM | > 100 µM | > 100 µM | > 100 µM | > 100 µM | – | – | – | – | – | – | – | – | – | – | – |
| CN(C)CC/C(=N\Nc1ccc([N+](=O)[O-])cc1)c1ccccc1 | 27.1 µM | 29.9 µM | 22.3 µM | 39.9 | 31.2 µM | 29.8 µM | 17.6 µM | 26.5 µM | 15.3 µM | – | – | – | – | – | – | – | – | – | – | – |
| O=C(O)C(SC(=S)c1ccc(C(=S)SC(C(=O)O)c2ccccc2)cc1)c1ccccc1 (stereo not given) | > 100 µM | – | > 100 µM | > 100 | > 100 µM | > 100 µM | > 100 µM | > 100 µM | > 100 µM | – | – | – | – | – | – | – | – | – | – | – |
| O=[N+]([O-])c1cc(C(F)(F)F)cc([N+](=O)[O-])c1CCl | 8.21 µM | 13.4 µM | 4.92 µM | 13.1 | 10.5 µM | 14.6 µM | 8.77 µM | 1.63 µM | 19.5 µM | – | – | – | – | – | – | – | – | – | – | – |
| CCOc1ccccc1N1C(=O)C(=O)C(c2nc3ccccc3o2)C(=O)C1=O | 65 µM | > 100 µM | – | > 100 | > 100 µM | > 100 µM | > 100 µM | > 100 µM | > 100 µM | – | – | – | – | – | – | – | – | – | – | – |
| COc1ccc(-c2nc(-c3nc4ccc(OC)cc4[nH]3)c3ccccn23)cc1 | > 100 µM | – | 15.8 µM | 70.5 | 62.1 µM | > 100 µM | > 100 µM | > 100 µM | 25.6 µM | 8.47 µM | – | 3.88 µM | 4.97 µM | 3.01 µM | 32.2 µM | 36.1 µM | 24 µM | 4.26 µM | 2.65 µM | 13.3 |
| CCOC(=O)N1CCN(C=S)CC1 | > 100 µM | > 100 µM | > 100 µM | > 100 | > 100 µM | > 100 µM | > 100 µM | > 100 µM | > 100 µM | – | – | – | – | – | – | – | – | – | – | – |
| CCOc1ccc2c(c1)[n+]([O-])c(-c1ccc(Cl)cc1)c(N)[n+]2[O-] | > 100 µM | > 100 µM | > 100 µM | > 100 | > 100 µM | > 100 µM | > 100 µM | > 100 µM | – | – | – | – | – | – | – | – | – | – | – | – |
| CN[C@@H](C)C(=O)N[C@H](C(=O)N1CCC[C@H]1C(=O)Nc1snnc1-c1ccccc1)C1CCCCC1 | > 100 µM | – | > 100 µM | 26.2 | > 100 µM | 0.723 µM | > 94.4 µM | > 100 µM | > 94.9 µM | 62.8 µM | – | 34.4 µM | 58.5 µM | 48.6 µM | > 100 µM | 0.0244 µM | 25.4 µM | > 100 µM | > 59.9 µM | 11.5 |
| CC(C)C1CC[C@@H](C)C[C@@]1(O)CC(N)=O (stereo not given in full) | > 100 µM | > 100 µM | > 100 µM | > 100 | > 100 µM | > 100 µM | > 100 µM | > 100 µM | > 100 µM | – | – | – | – | – | – | – | – | – | – | – |
| CCC(C)(CC(C)(C)C(=O)NCC(=O)NC(Cc1ccccc1)C(=O)NC(Cc1ccccc1)C(=O)NCC(=O)NC1CC(OC2CC(O)(C(=O)CO)Cc3c(O)c4c(c(O)c32)C(=O)c2c(OC)cccc2C4=O)OC(C)C1O)C(=O)NCC(C)O (stereo not given) | > 150 µg/mL | > 150 µg/mL | > 150 µg/mL | – | > 150 µg/mL | > 150 µg/mL | > 150 µg/mL | > 150 µg/mL | > 150 µg/mL | 54.3 µg/mL | > 150 µg/mL | 66.3 µg/mL | > 150 µg/mL | > 150 µg/mL | > 150 µg/mL | > 150 µg/mL | 16.1 µg/mL | 131 µg/mL | > 150 µg/mL | – |
